The values that follow come from PubChem BioAssay (NCI).

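The compound was tested at five concentrations on cells cultured in 96-well plates, with a 48-hour exposure period. TGI denotes the concentration required for complete inhibition of growth.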

Some test systems named below: COLO 205 colon; EKVX NSCLC; HOP-92 NSCLC; HT29 colon; MALME-3M melanoma; OVCAR-3 ovarian; OVCAR-4 ovarian; RPMI-8226 leukemia; SK-MEL-5 melanoma; SK-OV-3 ovarian; SNB-75 CNS; SR leukemia; U251 CNS.
Experiment in all cases: NCI anticancer screen, dose series, 48 h

Consider `C=C(Cl)C(C)(Cl)CCC(Cl)C(C)C` (stereo not given), for which the TGI with COLO 205 colon, with EKVX NSCLC, in the assay on HOP-92 NSCLC, in the assay on HT29 colon, in the assay with MALME-3M melanoma and with OVCAR-3 ovarian was greater than 100 µM in each case. The TGI in the assay on OVCAR-4 ovarian is greater than 100 µM; in the assay with RPMI-8226 leukemia it was greater than 100 µM; with SK-MEL-5 melanoma, greater than 100 µM; with SK-OV-3 ovarian it was greater than 100 µM; with SNB-75 CNS, greater than 100 µM; in the assay on SR leukemia, 64.2 µM. In the assay on U251 CNS, this compound came in with a TGI greater than 100 µM.

Consider `CCCCCCCCCCOCCOCCOCCOCCCCC(O)CCCCCCCC1=C[C@H](C)OC1=O` (stereo not given in full), for which the TGI turned out to be 34.5 µM in the assay on COLO 205 colon; 26.4 µM in the assay on EKVX NSCLC; 29.6 µM with HOP-92 NSCLC; 24.4 µM in the assay on HT29 colon; 46.3 µM with MALME-3M melanoma; 33.8 µM in the assay on OVCAR-3 ovarian. Besides, the TGI in the assay on OVCAR-4 ovarian is 37.7 µM; in the assay with RPMI-8226 leukemia, 24 µM; in the assay with SK-MEL-5 melanoma, 22.2 µM; with SK-OV-3 ovarian it was 41.4 µM; in the assay on SNB-75 CNS, 24.7 µM; in the assay on SR leukemia, 19.6 µM. This compound also gave a TGI in the assay on U251 CNS of 23.5 µM.

Consider `Cc1ccsc1C(=S)Nc1ccc(Cl)c(/C=N/OC(C)C)c1`, for which the TGI in the assay on COLO 205 colon is 47.3 µM; in the assay on EKVX NSCLC it was greater than 100 µM; in the assay with HOP-92 NSCLC, greater than 100 µM; in the assay on HT29 colon it was greater than 100 µM; in the assay on MALME-3M melanoma it was 98.9 µM; with OVCAR-3 ovarian, greater than 100 µM. Moreover, the TGI with OVCAR-4 ovarian is 98.9 µM; with RPMI-8226 leukemia it was 34.1 µM; in the assay with SK-MEL-5 melanoma it was 75.4 µM; in the assay on SK-OV-3 ovarian it was greater than 100 µM; in the assay on SNB-75 CNS it was greater than 100 µM; in the assay on SR leukemia, 48.7 µM. This compound displayed a TGI in the assay on U251 CNS greater than 100 µM.

Take `O=C(O)C12CCC(CC1=O)C2` (stereo not given): the TGI in the assay on COLO 205 colon, in the assay on EKVX NSCLC, in the assay with HOP-92 NSCLC, in the assay on HT29 colon, with MALME-3M melanoma and with OVCAR-3 ovarian was greater than 100 µM each time. The TGI in the assay on OVCAR-4 ovarian, in the assay on RPMI-8226 leukemia, in the assay on SK-MEL-5 melanoma, with SK-OV-3 ovarian, with SNB-75 CNS and with SR leukemia was greater than 100 µM in each case. The compound also gave a TGI in the assay on U251 CNS greater than 100 µM.

As for `CCCC(=O)OC[n+]1ccc(-c2c(COC(=O)NC(C)C)c(COC(=O)NC(C)C)c3n2CCC3)cc1`, the TGI with COLO 205 colon, in the assay with EKVX NSCLC, with HOP-92 NSCLC, with HT29 colon, in the assay with MALME-3M melanoma and in the assay with OVCAR-3 ovarian was greater than 100 µM each time. Further, the TGI with OVCAR-4 ovarian, in the assay on RPMI-8226 leukemia, with SK-MEL-5 melanoma, in the assay with SK-OV-3 ovarian, in the assay with SNB-75 CNS and with SR leukemia was greater than 100 µM in each case. Further, in the assay on U251 CNS, the TGI was greater than 100 µM.

In the case of `CC(=O)NC1COC(COC(=O)CCCCCCCCCCNC(=O)c2ccc([N+](=O)[O-])c3c(=O)c4ccccc4[nH]c23)C(O)C1OC(C)C(=O)NC(C(=O)NC(CCC(N)=O)C(=O)OCc1ccccc1)C(C)C` (stereo not given), the TGI in the assay on COLO 205 colon was 41.2 µM; in the assay with EKVX NSCLC, 27.8 µM; in the assay on HOP-92 NSCLC, 31.5 µM; with HT29 colon it was 22.2 µM; in the assay on MALME-3M melanoma, greater than 83.8 µM; in the assay on OVCAR-3 ovarian it was 9.57 µM. In addition, the TGI came to 30.3 µM with OVCAR-4 ovarian; 23.1 µM in the assay on RPMI-8226 leukemia; 57.9 µM in the assay on SK-MEL-5 melanoma; 78.8 µM in the assay with SK-OV-3 ovarian; 55.6 µM with SNB-75 CNS; 46.5 µM with SR leukemia. The TGI in the assay on U251 CNS came out at 27.9 µM.

`O=C1C(c2ccccc2)=C(c2ccccc2)C(c2ccc(Sc3ccc(C4=C(c5ccccc5)C(=O)C(c5ccccc5)=C4c4ccccc4)cc3)cc2)=C1c1ccccc1`: the TGI in the assay with COLO 205 colon, with EKVX NSCLC, in the assay with HOP-92 NSCLC, in the assay on HT29 colon, with MALME-3M melanoma and with OVCAR-3 ovarian was greater than 100 µM throughout. The TGI with OVCAR-4 ovarian is greater than 100 µM; in the assay with RPMI-8226 leukemia, greater than 100 µM; in the assay on SK-MEL-5 melanoma it was greater than 100 µM; in the assay on SK-OV-3 ovarian it was greater than 100 µM; in the assay on SNB-75 CNS, 76.5 µM; in the assay on SR leukemia it was greater than 100 µM. Besides, in the assay with U251 CNS, the TGI was greater than 100 µM.

For `CCOC(=O)c1sc2nc1CSc1sc(=S)sc1SCc1nc(sc1C(=O)OCC)-c1nc(c(C(=O)OCC)s1)CSc1sc(=S)sc1SCc1nc-2sc1C(=O)OCC`, the TGI with COLO 205 colon, in the assay with EKVX NSCLC, with HOP-92 NSCLC, in the assay on HT29 colon, with MALME-3M melanoma and in the assay with OVCAR-3 ovarian was greater than 10 µM each time. Moreover, the TGI in the assay on OVCAR-4 ovarian, with RPMI-8226 leukemia, in the assay on SK-MEL-5 melanoma, in the assay on SK-OV-3 ovarian, in the assay with SNB-75 CNS and in the assay on SR leukemia was greater than 10 µM in each case. This compound gave a TGI in the assay with U251 CNS greater than 10 µM.

Regarding `O=CN1CCC23CC(O)CCC2C1Cc1cc(Oc2nnnn2-c2ccccc2)cc(O)c13` (stereo not given), the TGI in the assay on COLO 205 colon, in the assay with EKVX NSCLC, in the assay with HOP-92 NSCLC, in the assay on HT29 colon, in the assay on MALME-3M melanoma and in the assay on OVCAR-3 ovarian was greater than 100 µM throughout. In addition, the TGI in the assay on OVCAR-4 ovarian, in the assay on RPMI-8226 leukemia, in the assay with SK-MEL-5 melanoma, in the assay with SK-OV-3 ovarian, in the assay with SNB-75 CNS and with SR leukemia was greater than 100 µM in each case. In addition, the TGI in the assay with U251 CNS was greater than 100 µM.

On to `O=C1/C(=C/c2ccc(O)c(O)c2)CC/C1=C\c1ccc(O)c(O)c1`, for which the TGI with COLO 205 colon is greater than 86.8 µM; with EKVX NSCLC, greater than 75.3 µM; with HOP-92 NSCLC it was 76.1 µM; with HT29 colon, greater than 100 µM; with MALME-3M melanoma, greater than 100 µM; with OVCAR-3 ovarian it was 32 µM. The TGI with OVCAR-4 ovarian is greater than 57.5 µM; in the assay on RPMI-8226 leukemia, 76.3 µM; with SK-MEL-5 melanoma, greater than 60.3 µM; in the assay on SK-OV-3 ovarian it was greater than 60.2 µM; in the assay on SNB-75 CNS, greater than 80.1 µM; in the assay on SR leukemia it was greater than 29.5 µM. Also, the TGI with U251 CNS worked out at 27.4 µM.
